Experimental findings from ChEMBL document CHEMBL1128892, “Pharmacological evaluation of UK-14,304 analogs at cloned human adrenergic receptors” (Bioorg Med Chem Lett, 1995) are described below.

pEC50, pKi: −log10 of the molar value. Activity calls are given as the source filed them. The rule behind the calls is not given here.

Test [1] addresses T1, Alpha-2A adrenergic receptor (Homo sapiens, UniProt P08913).
T1 sequence (P08913 whole entry): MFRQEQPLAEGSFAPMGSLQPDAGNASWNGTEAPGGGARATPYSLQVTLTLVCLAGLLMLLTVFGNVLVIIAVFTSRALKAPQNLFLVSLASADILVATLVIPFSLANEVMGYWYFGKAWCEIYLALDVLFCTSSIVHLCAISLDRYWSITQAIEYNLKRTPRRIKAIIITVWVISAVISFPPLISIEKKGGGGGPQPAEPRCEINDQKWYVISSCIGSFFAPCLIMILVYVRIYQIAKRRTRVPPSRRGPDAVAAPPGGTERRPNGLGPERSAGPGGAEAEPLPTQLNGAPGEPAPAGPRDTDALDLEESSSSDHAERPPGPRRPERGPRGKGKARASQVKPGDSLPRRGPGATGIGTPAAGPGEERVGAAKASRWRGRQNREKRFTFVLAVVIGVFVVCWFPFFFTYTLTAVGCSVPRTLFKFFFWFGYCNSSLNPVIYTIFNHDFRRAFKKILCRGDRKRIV
Description: Alpha-2A adrenergic receptor agonistic potency as inhibition of forskolin-stimulated synthesis of cyclic adenosine monophosphate. Type of test: functional.

Test [2] has as its target T1, Alpha-2A adrenergic receptor. The test can be described thus: Binding affinity for human Alpha-2A adrenergic receptor from cultured LM(tk-) cells using [3H]rauwolscine.
Test [3] addresses T2, Alpha-1A adrenergic receptor (Homo sapiens, UniProt P35348).
T2 sequence (P35348 whole entry): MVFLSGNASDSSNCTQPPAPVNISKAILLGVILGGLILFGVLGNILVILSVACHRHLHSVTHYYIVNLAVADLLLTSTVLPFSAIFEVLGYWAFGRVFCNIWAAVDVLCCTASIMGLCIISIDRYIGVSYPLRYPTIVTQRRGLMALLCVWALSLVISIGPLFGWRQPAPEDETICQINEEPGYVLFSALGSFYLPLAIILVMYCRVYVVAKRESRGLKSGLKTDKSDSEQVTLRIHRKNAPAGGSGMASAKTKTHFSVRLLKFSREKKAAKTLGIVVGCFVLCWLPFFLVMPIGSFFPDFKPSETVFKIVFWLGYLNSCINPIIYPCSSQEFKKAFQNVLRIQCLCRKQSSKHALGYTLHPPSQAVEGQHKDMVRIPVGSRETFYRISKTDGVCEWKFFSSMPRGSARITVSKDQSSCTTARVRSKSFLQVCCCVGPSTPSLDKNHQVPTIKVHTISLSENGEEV
The test can be described thus: Binding affinity for human Alpha-1A adrenergic receptor from cultured LM(tk-) cells using [3H]-prazosin.

The target of test [4] is T3, Alpha-2B adrenergic receptor (Homo sapiens, UniProt P18089).
T3 sequence (P18089 whole entry): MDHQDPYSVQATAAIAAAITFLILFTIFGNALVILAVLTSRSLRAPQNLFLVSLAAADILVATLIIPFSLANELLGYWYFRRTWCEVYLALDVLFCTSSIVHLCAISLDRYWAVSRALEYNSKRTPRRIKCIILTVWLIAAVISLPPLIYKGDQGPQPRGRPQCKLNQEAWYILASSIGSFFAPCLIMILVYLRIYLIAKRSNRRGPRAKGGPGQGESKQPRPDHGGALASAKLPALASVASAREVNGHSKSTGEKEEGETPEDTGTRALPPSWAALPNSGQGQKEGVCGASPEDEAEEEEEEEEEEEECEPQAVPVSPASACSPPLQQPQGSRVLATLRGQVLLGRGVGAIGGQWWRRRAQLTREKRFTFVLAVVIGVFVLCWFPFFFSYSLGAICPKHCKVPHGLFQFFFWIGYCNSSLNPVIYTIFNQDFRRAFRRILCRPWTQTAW
The test can be described thus: Alpha-2B adrenergic receptor agonistic potency as inhibition of forskolin-stimulated cyclic adenosine monophosphate synthesis. Type of test: functional.

The target of test [5] is T3, Alpha-2B adrenergic receptor. Description: Binding affinity for human Alpha-2B adrenergic receptor from cultured LM(tk-) cells using [3H]- prazosin.
The target in test [6] is T4, Alpha-1B adrenergic receptor (Homo sapiens, UniProt P35368).
T4 sequence (P35368 whole entry): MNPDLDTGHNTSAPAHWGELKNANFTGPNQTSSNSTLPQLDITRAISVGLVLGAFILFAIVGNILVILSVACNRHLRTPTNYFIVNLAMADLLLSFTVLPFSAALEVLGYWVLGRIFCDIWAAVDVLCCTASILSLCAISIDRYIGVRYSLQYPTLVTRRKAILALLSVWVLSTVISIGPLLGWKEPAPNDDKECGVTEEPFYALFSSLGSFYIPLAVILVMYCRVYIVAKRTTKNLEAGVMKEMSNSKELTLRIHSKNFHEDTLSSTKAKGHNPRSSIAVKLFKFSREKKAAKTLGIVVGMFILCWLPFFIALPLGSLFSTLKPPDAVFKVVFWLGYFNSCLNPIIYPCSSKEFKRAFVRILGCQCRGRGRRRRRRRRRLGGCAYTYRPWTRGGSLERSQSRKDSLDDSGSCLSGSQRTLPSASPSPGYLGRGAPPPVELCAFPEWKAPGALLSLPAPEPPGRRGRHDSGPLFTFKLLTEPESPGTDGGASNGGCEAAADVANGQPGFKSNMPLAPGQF
The test can be described thus: Binding affinity for human Alpha-1B adrenergic receptor from cultured LM(tk-) cells using [3H]prazosin.

Test [7] deals with T5, Alpha-2A adrenergic receptor (Homo sapiens) (UniProt P08913).
T5 sequence (whole entry): T1 sequence (P08913 whole entry)
Description: Inhibitory activity against Alpha-2A adrenergic receptor relative to norepinephrine.

Test [8] has as its target T6, Alpha-2C adrenergic receptor (Homo sapiens) (UniProt P18825).
T6 sequence (whole entry): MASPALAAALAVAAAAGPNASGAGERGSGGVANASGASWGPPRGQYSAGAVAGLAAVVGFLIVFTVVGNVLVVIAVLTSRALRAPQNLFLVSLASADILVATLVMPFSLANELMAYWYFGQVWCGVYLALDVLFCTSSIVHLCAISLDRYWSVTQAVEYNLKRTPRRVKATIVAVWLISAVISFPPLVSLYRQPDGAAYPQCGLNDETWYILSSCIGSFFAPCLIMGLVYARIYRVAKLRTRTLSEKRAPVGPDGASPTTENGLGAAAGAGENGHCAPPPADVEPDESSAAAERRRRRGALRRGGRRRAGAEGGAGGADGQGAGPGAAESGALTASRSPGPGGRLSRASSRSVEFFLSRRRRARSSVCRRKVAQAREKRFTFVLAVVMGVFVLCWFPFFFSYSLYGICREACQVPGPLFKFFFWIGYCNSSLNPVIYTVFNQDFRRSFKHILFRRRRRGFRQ
Description: Inhibitory activity against Alpha-2C adrenergic receptor relative to norepinephrine.

Test [9] deals with T7, Alpha-2C adrenergic receptor (Homo sapiens, UniProt P18825).
T7 sequence (P18825 whole entry): T6 sequence (whole entry)
Description: Alpha-2C adrenergic receptor agonistic potency as inhibition of forskolin-stimulated cyclic adenosine monophosphate synthesis. Type of test: functional.

For test [10], the target named is T7, Alpha-2C adrenergic receptor. Description: Binding affinity for human Alpha-2C adrenergic receptor from cultured LM(tk-) cells using [3H]- prazosin.
The target in test [11] is T8, Alpha-1D adrenergic receptor (Homo sapiens, UniProt P25100).
T8 sequence (P25100 whole entry): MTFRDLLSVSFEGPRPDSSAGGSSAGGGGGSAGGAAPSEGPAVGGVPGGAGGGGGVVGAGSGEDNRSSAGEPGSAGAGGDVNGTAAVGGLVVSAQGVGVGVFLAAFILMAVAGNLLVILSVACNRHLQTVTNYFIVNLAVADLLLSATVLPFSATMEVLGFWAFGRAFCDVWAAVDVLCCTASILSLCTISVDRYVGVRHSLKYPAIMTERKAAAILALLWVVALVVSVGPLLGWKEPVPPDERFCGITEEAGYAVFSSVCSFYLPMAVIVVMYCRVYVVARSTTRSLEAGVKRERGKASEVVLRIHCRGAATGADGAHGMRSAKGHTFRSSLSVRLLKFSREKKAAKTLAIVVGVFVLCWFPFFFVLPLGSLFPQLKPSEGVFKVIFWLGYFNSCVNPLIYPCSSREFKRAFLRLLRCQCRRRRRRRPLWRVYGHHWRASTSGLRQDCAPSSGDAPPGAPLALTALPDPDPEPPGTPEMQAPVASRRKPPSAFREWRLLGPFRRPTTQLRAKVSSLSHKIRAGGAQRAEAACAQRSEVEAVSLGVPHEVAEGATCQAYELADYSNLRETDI
Description: Binding affinity for human Alpha-1D adrenergic receptor from cultured LM(tk-) cells using [3H]- prazosin.

In test [12] the target is T3, Alpha-2B adrenergic receptor. Description: Binding affinity for human alpha-2B adrenoceptor from cultured Y-1 cells using [3H]rauwolscine. Type of test: cell-based.
The target in test [13] is T9, Alpha-2B adrenergic receptor (Homo sapiens) (UniProt P18089).
T9 sequence (whole entry): T3 sequence (P18089 whole entry)
The test can be described thus: Inhibitory activity against alpha-2B adrenoceptor relative to norepinephrine at 100 uM; Not active.

Test [14] deals with T9, Alpha-2B adrenergic receptor (Homo sapiens). Conditions: 100 uM.

Broadly, the pEC50 is −log10 of the EC50, conventionally taken in molar units. Low values mean a high EC50, high ones a low EC50. As usually defined, the pKi is −log10 of the Ki, conventionally taken in molar units. Lower therefore signals a large Ki. `Cc1c(NC2=NCCN2)ccc2nccnc12`: the pEC50 in [1] is 8.92; in test [4], 7.11; in test [9] it was 7.85. Also, the pKi in test [2] is 8.14; in [3], 5.83; in test [5] it was 8.05; in test [6] it was 5.48; in [10], 7.55; in test [11], 6.25. Also, the Intrinsic activity in test [7] and in [8] was 1 throughout.

As for `Ic1c(NC2=NCCN2)ccc2nccnc12`, the pEC50 in test [1] is 7.94; in [9], 7.26. Also, the pKi was 8.17 in test [2]; 6.01 in test [3]; 7.37 in [12]; 5.72 in test [6]; 6.39 in [10]; 6.55 in test [11]. Further, in test [13], the Intrinsic activity result is “inactive”. In addition, the Intrinsic activity in test [7] and in [8] was 1 each time. Also, the “Log EC50” value in test [14] is “inactive”.
